Test results as given in article PMC12772033, “A drought stress-responsive metabolite malate modulates stomatal responses through G-protein-dependent pathway in grapevine and Arabidopsis” (Molecular Horticulture, 2026).
Where a name gives a salt, the structure may show the parent alone.

Experiments:
[1] = biological target: T1, VvSLAC1 (Vitis vinifera, UniProt A0ABY9BHH9, F440A); test: two-electrode voltage clamp, Xenopus oocytes; format: cell-based; settings: activator of open-gate mutant
T1 construct: gene VitviT2T_002114; cDNA in pNB1u, cRNA expressed in Xenopus laevis oocytes; no tag mentioned; model trimmed 1-141 and 507-553

[2] = biological target: T1, VvSLAC1; test: two-electrode voltage clamp, ramp mode, Xenopus oocytes; format: cell-based; settings: activator of open-gate mutant, pH 5.6, 1 mM LaCl3, ramp +60 to -120 mV
[3] = pH 5.6, 1 mM LaCl3, -120 mV gap-free and I-V steps

T1 sequence (A0ABY9BHH9 entry or part of it F440A): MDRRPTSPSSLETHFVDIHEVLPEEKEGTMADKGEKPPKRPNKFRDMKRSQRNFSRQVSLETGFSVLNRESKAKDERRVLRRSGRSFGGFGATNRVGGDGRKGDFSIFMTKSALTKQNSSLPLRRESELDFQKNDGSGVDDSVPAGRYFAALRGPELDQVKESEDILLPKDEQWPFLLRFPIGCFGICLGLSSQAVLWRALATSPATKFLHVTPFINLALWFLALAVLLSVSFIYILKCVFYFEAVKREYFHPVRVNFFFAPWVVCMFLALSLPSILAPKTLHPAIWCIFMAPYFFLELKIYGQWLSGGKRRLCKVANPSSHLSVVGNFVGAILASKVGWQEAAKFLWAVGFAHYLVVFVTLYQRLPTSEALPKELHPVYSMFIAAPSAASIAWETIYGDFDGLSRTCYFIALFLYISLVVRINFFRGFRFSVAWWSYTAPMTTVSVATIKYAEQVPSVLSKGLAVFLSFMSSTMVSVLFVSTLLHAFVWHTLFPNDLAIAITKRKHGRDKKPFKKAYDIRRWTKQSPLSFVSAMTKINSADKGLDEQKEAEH

Structure (SMILES) | relative current at 10 mM [1, 3] | also measured
O=C(O)C[C@H](O)C(=O)O [Mal, malate] | Dicarboxylates, however, promoted the activity of VvSLAC1F440A. | –
O=C(O)CC(=O)C(=O)O [Oxal, oxalacetate] | – | relative current at 10 mM ([1]; pH 5.6, 1 mM LaCl3, -120 mV gap-free): Dicarboxylates, however, promoted the activity of VvSLAC1F440A.
O=C(O)/C=C/C(=O)O [Fum, fumarate] | Dicarboxylates, however, promoted the activity of VvSLAC1F440A. | –
O=C(O)CC(O)(CC(=O)O)C(=O)O [Cit, citrate] | – | current at 10 mM [2]: The metabolites other than monocarboxylates activated VvSLAC1F440A.
